# Source: PubChem BioAssay (NCI)
#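 Where inhibition never reached the appropriate level, the endpoint shown equals the highest concentration tested. Otherwise, values were interpolated linearly from a five-concentration, 48-hour dose response in 96-well plates. Definition used: TGI = concentration required for complete inhibition of growth.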
# Legend:
# Experiment in all cases: NCI tumour cell line growth inhibition, 48 h
# [1] = tested on: U251 CNS
# [2] = tested on: OVCAR-3 ovarian
# [3] = tested on: MOLT-4 leukemia
# [4] = tested on: MDA-MB-435
# [5] = tested on: HCC-2998 colon
# [6] = tested on: KM12 colon
# [7] = tested on: OVCAR-8 ovarian
# [8] = tested on: LOX IMVI melanoma
# [9] = tested on: COLO 205 colon
# [10] = tested on: HL-60(TB) leukemia
# [11] = tested on: RXF 393 renal
# [12] = tested on: HOP-62 NSCLC
# [13] = tested on: RPMI-8226 leukemia
# [14] = tested on: IGROV1 ovarian
# [15] = tested on: SW-620 colon
# [16] = tested on: NCI-H460 lung
# [17] = tested on: HOP-92 NSCLC
# [18] = tested on: NCI-H23 lung
# [19] = tested on: DU-145 prostate
# [20] = tested on: K-562 leukemia
# [21] = tested on: NCI-H226 lung
# [22] = tested on: SF-539 CNS
# [23] = tested on: T-47D breast
# [24] = tested on: SR leukemia
# [25] = tested on: NCI/ADR-RES ovarian
# [26] = tested on: SK-MEL-28 melanoma
# [27] = tested on: MALME-3M melanoma
# [28] = tested on: UACC-62 melanoma
# [29] = tested on: SK-MEL-2 melanoma
# [30] = tested on: HT29 colon
# [31] = tested on: A549 NSCLC
# [32] = tested on: SK-OV-3 ovarian
# [33] = tested on: PC-3 prostate
# [34] = tested on: TK-10 renal
# [35] = tested on: MCF7 breast
# [36] = tested on: HCT-116 colon
# [37] = tested on: 786-0 renal
# [38] = tested on: SK-MEL-5 melanoma
# [39] = tested on: HS 578T breast
# [40] = tested on: M14 melanoma
# [41] = tested on: CAKI-1 renal
# [42] = tested on: OVCAR-4 ovarian
# [43] = tested on: SNB-19 CNS
# [44] = tested on: SF-295 CNS
# [45] = tested on: MDA-N
# [46] = tested on: CCRF-CEM leukemia
# [47] = tested on: ACHN renal
# [48] = tested on: UACC-257 melanoma
# [49] = tested on: BT-549 breast
# [50] = tested on: EKVX NSCLC
# [51] = tested on: SF-268 CNS
# [52] = tested on: SN12C renal
# [53] = tested on: SNB-75 CNS
# [54] = tested on: OVCAR-5 ovarian
# [55] = tested on: HCT-15 colon
# [56] = tested on: UO-31 renal
# [57] = tested on: NCI-H522 lung
# [58] = tested on: MDA-MB-231 breast
# [59] = tested on: A498 renal
smiles,measurement,setting,value
Cc1ccc(-n2c(=O)c3nn4c(=O)n(-c5ccc(C)cc5)c(=O)c4nn3c2=O)cc1,TGI,[1],> 100 µM
same,TGI,[2],> 100 µM
same,TGI,[3],> 100 µM
same,TGI,[4],> 100 µM
same,TGI,[5],> 100 µM
same,TGI,[6],> 100 µM
same,TGI,[7],> 100 µM
same,TGI,[8],> 100 µM
same,TGI,[9],> 100 µM
same,TGI,[10],> 100 µM
same,TGI,[11],> 100 µM
same,TGI,[12],> 100 µM
same,TGI,[13],> 100 µM
same,TGI,[14],> 100 µM
same,TGI,[15],> 100 µM
same,TGI,[16],> 100 µM
same,TGI,[17],> 100 µM
same,TGI,[18],> 100 µM
same,TGI,[19],> 100 µM
same,TGI,[20],> 100 µM
same,TGI,[21],> 100 µM
same,TGI,[22],> 100 µM
same,TGI,[23],> 100 µM
same,TGI,[24],> 100 µM
same,TGI,[25],> 100 µM
same,TGI,[26],> 100 µM
same,TGI,[27],> 100 µM
same,TGI,[28],> 100 µM
same,TGI,[29],> 100 µM
same,TGI,[30],> 100 µM
same,TGI,[31],> 100 µM
same,TGI,[32],> 100 µM
same,TGI,[33],> 100 µM
same,TGI,[34],> 100 µM
same,TGI,[35],> 100 µM
same,TGI,[36],> 100 µM
same,TGI,[37],> 100 µM
same,TGI,[38],> 100 µM
same,TGI,[39],> 100 µM
same,TGI,[40],> 100 µM
same,TGI,[41],> 100 µM
same,TGI,[42],> 100 µM
same,TGI,[43],> 100 µM
same,TGI,[44],> 100 µM
same,TGI,[45],> 100 µM
same,TGI,[46],> 100 µM
same,TGI,[47],> 100 µM
same,TGI,[48],> 100 µM
same,TGI,[49],> 100 µM
same,TGI,[50],> 100 µM
same,TGI,[51],> 100 µM
same,TGI,[52],> 100 µM
same,TGI,[53],> 100 µM
same,TGI,[54],> 100 µM
same,TGI,[55],> 100 µM
same,TGI,[56],> 100 µM
same,TGI,[57],> 100 µM
Cc1ccc(S(=O)(=O)NC(=O)NC(C(=O)O)C(C)C)cc1 (stereo not drawn),TGI,[1],> 100 µM
same,TGI,[3],> 100 µM
same,TGI,[6],> 100 µM
same,TGI,[7],> 100 µM
same,TGI,[8],> 100 µM
same,TGI,[9],> 100 µM
same,TGI,[10],> 100 µM
same,TGI,[11],> 100 µM
same,TGI,[12],> 100 µM
same,TGI,[13],> 100 µM
same,TGI,[14],> 100 µM
same,TGI,[15],> 100 µM
same,TGI,[16],> 100 µM
same,TGI,[17],> 100 µM
same,TGI,[18],> 100 µM
same,TGI,[19],> 100 µM
same,TGI,[20],> 100 µM
same,TGI,[22],> 100 µM
same,TGI,[23],> 100 µM
same,TGI,[24],> 100 µM
same,TGI,[25],> 100 µM
same,TGI,[26],> 100 µM
same,TGI,[27],> 100 µM
same,TGI,[28],> 100 µM
same,TGI,[29],> 100 µM
same,TGI,[30],> 100 µM
same,TGI,[31],> 100 µM
same,TGI,[32],> 100 µM
same,TGI,[33],> 100 µM
same,TGI,[34],> 100 µM
same,TGI,[35],> 100 µM
same,TGI,[36],> 100 µM
same,TGI,[37],> 100 µM
same,TGI,[38],> 100 µM
same,TGI,[39],> 100 µM
same,TGI,[40],> 100 µM
same,TGI,[42],> 100 µM
same,TGI,[43],> 100 µM
same,TGI,[44],> 100 µM
same,TGI,[45],> 100 µM
same,TGI,[46],> 100 µM
same,TGI,[47],> 100 µM
same,TGI,[48],> 100 µM
same,TGI,[49],> 100 µM
same,TGI,[51],> 100 µM
same,TGI,[52],> 100 µM
same,TGI,[53],> 100 µM
same,TGI,[54],> 100 µM
same,TGI,[55],> 100 µM
same,TGI,[56],> 100 µM
same,TGI,[57],> 100 µM
same,TGI,[58],> 100 µM
Cc1nn(C(=O)c2ccccc2O)c2c1C(c1ccc3ccccc3c1O)SC(N)=N2 (stereo not drawn),TGI,[1],> 10 µM
same,TGI,[2],9.61 µM
same,TGI,[3],> 10 µM
same,TGI,[4],> 10 µM
same,TGI,[6],> 10 µM
same,TGI,[7],> 10 µM
same,TGI,[8],> 10 µM
same,TGI,[9],> 10 µM
same,TGI,[11],> 10 µM
same,TGI,[12],> 10 µM
same,TGI,[13],> 10 µM
same,TGI,[14],> 10 µM
same,TGI,[15],> 10 µM
same,TGI,[16],> 10 µM
same,TGI,[17],4.03 µM
same,TGI,[18],> 10 µM
same,TGI,[59],> 10 µM
same,TGI,[20],> 10 µM
same,TGI,[21],> 10 µM
same,TGI,[22],> 10 µM
same,TGI,[23],8.93 µM
same,TGI,[24],> 10 µM
same,TGI,[26],> 10 µM
same,TGI,[27],> 10 µM
same,TGI,[28],4.63 µM
same,TGI,[29],> 10 µM
same,TGI,[30],> 10 µM
same,TGI,[31],> 10 µM
same,TGI,[32],> 10 µM
same,TGI,[33],> 10 µM
same,TGI,[34],> 10 µM
same,TGI,[35],7.32 µM
same,TGI,[36],> 10 µM
same,TGI,[37],> 10 µM
same,TGI,[38],4.76 µM
same,TGI,[39],> 10 µM
same,TGI,[40],> 10 µM
same,TGI,[41],> 10 µM
same,TGI,[42],> 10 µM
same,TGI,[43],> 10 µM
same,TGI,[44],> 10 µM
same,TGI,[45],> 10 µM
same,TGI,[46],> 10 µM
same,TGI,[47],> 10 µM
same,TGI,[48],> 10 µM
same,TGI,[49],> 10 µM
same,TGI,[50],> 10 µM
same,TGI,[51],> 10 µM
same,TGI,[52],> 10 µM
same,TGI,[53],> 10 µM
same,TGI,[54],> 10 µM
same,TGI,[55],> 10 µM
same,TGI,[56],> 10 µM
same,TGI,[58],> 10 µM
